Reference: ChEMBL document CHEMBL1201862, “PubChem BioAssay data set” (2004)
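Exposure lasted 48 hours, with cells grown in 96-well plates and compounds tested at five concentrations. Here, GI50 denotes the concentration required for 50% inhibition of growth.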 The source made the active and inactive calls. Cut-off read from the data, not from the text of the source: active = GI50 up to about 1.1 µM and inactive = higher.

Experiments:
Assay in all cases: growth of human tumour cells (NCI), 48 h
786-0 = system: 786-0
A498 = system: A498
A549 = system: A549
ACHN = system: ACHN
BT-549 = system: BT-549
CAKI-1 = system: CAKI-1
CCRF-CEM = system: CCRF-CEM
COLO 205 = system: COLO 205
DU-145 = system: DU-145
EKVX = system: EKVX
HCC 2998 = system: HCC 2998
HCT-116 = system: HCT-116
HCT-15 = system: HCT-15
HL-60 = system: HL-60
HOP-62 = system: HOP-62
HOP-92 = system: HOP-92
HT-29 = system: HT-29
Hs-578T = system: Hs-578T
IGROV-1 = system: IGROV-1
K562 = system: K562
KM12 = system: KM12
LOX IMVI = system: LOX IMVI
M14 = system: M14
MCF7 = system: MCF7
MDA-MB-231 = system: MDA-MB-231
MDA-MB-435 = system: MDA-MB-435
MDA-N = system: MDA-N
MOLT-4 = system: MOLT-4
Malme-3M = system: Malme-3M
NCI-H226 = system: NCI-H226
NCI-H23 = system: NCI-H23
NCI-H460 = system: NCI-H460
NCI-H522 = system: NCI-H522
NCI/ADR-RES = system: NCI/ADR-RES
OVCAR-3 = system: OVCAR-3
OVCAR-4 = system: OVCAR-4
OVCAR-5 = system: OVCAR-5
OVCAR-8 = system: OVCAR-8
PC-3 = system: PC-3
RPMI-8226 = system: RPMI-8226
RXF 393 = system: RXF 393
SF-268 = system: SF-268
SF-295 = system: SF-295
SF-539 = system: SF-539
SK-MEL-28 = system: SK-MEL-28
SK-MEL-2 = system: SK-MEL-2
SK-MEL-5 = system: SK-MEL-5
SK-OV-3 = system: SK-OV-3
SN12C = system: SN12C
SNB-19 = system: SNB-19
SNB-75 = system: SNB-75
SR = system: SR
SW-620 = system: SW-620
T47D = system: T47D
TK-10 = system: TK-10
U-251 = system: U-251
UACC-257 = system: UACC-257
UACC-62 = system: UACC-62
UO-31 = system: UO-31

## O=C(O)c1ccc(C(=O)O)c(C(=O)Nc2ccc3c(c2)C(=O)c2ccccc2-3)c1
786-0
  GI50: > 100 µM (inactive)
A498
  GI50: > 100 µM (inactive)
A549
  GI50: > 100 µM (inactive)
ACHN
  GI50: > 100 µM (inactive)
BT-549
  GI50: > 100 µM (inactive)
CAKI-1
  GI50: > 100 µM (inactive)
CCRF-CEM
  GI50: 48 µM (inactive)
COLO 205
  GI50: > 100 µM (inactive)
DU-145
  GI50: > 100 µM (inactive)
EKVX
  GI50: > 100 µM (inactive)
HCC 2998
  GI50: > 100 µM (inactive)
HCT-116
  GI50: > 100 µM (inactive)
HCT-15
  GI50: > 100 µM
HL-60
  GI50: 55.6 µM (inactive)
HOP-62
  GI50: > 100 µM (inactive)
HOP-92
  GI50: > 100 µM (inactive)
HT-29
  GI50: > 100 µM (inactive)
Hs-578T
  GI50: > 100 µM (inactive)
IGROV-1
  GI50: > 100 µM (inactive)
K562
  GI50: > 100 µM (inactive)
KM12
  GI50: > 100 µM (inactive)
LOX IMVI
  GI50: > 100 µM (inactive)
M14
  GI50: > 100 µM (inactive)
MCF7
  GI50: > 100 µM (inactive)
MDA-MB-231
  GI50: > 100 µM (inactive)
MDA-MB-435
  GI50: > 100 µM (inactive)
MDA-N
  GI50: > 100 µM (inactive)
MOLT-4
  GI50: > 100 µM (inactive)
Malme-3M
  GI50: > 100 µM (inactive)
NCI-H226
  GI50: > 100 µM (inactive)
NCI-H23
  GI50: > 100 µM (inactive)
NCI-H460
  GI50: > 100 µM (inactive)
NCI-H522
  GI50: > 100 µM (inactive)
NCI/ADR-RES
  GI50: > 100 µM (inactive)
OVCAR-3
  GI50: > 100 µM (inactive)
OVCAR-4
  GI50: > 100 µM (inactive)
OVCAR-5
  GI50: > 100 µM (inactive)
OVCAR-8
  GI50: > 100 µM (inactive)
PC-3
  GI50: > 100 µM (inactive)
RPMI-8226
  GI50: > 100 µM (inactive)
RXF 393
  GI50: > 100 µM (inactive)
SF-268
  GI50: > 100 µM (inactive)
SF-295
  GI50: > 100 µM (inactive)
SF-539
  GI50: > 100 µM (inactive)
SK-MEL-28
  GI50: > 100 µM (inactive)
SK-MEL-2
  GI50: > 100 µM (inactive)
SK-MEL-5
  GI50: > 100 µM (inactive)
SK-OV-3
  GI50: > 100 µM (inactive)
SN12C
  GI50: > 100 µM (inactive)
SNB-19
  GI50: > 100 µM (inactive)
SNB-75
  GI50: > 100 µM (inactive)
SR
  GI50: > 100 µM (inactive)
SW-620
  GI50: > 100 µM (inactive)
T47D
  GI50: > 100 µM (inactive)
TK-10
  GI50: > 100 µM (inactive)
U-251
  GI50: > 100 µM (inactive)
UACC-257
  GI50: > 100 µM (inactive)
UACC-62
  GI50: > 100 µM (inactive)
UO-31
  GI50: > 100 µM (inactive)

## CC(C)[Si](OC1=C(C(=O)Nc2ccccc2Cl)CCCCC1)(C(C)C)C(C)C
786-0
  GI50: > 100 µM (inactive)
A498
  GI50: > 100 µM (inactive)
A549
  GI50: > 100 µM (inactive)
ACHN
  GI50: > 100 µM (inactive)
BT-549
  GI50: > 100 µM (inactive)
CAKI-1
  GI50: > 100 µM (inactive)
CCRF-CEM
  GI50: 0.462 µM (active)
COLO 205
  GI50: > 100 µM (inactive)
DU-145
  GI50: > 100 µM (inactive)
EKVX
  GI50: > 100 µM (inactive)
HCC 2998
  GI50: > 100 µM (inactive)
HCT-116
  GI50: > 100 µM (inactive)
HCT-15
  GI50: > 100 µM
HL-60
  GI50: 1.97 µM (inactive)
HOP-62
  GI50: > 100 µM (inactive)
HOP-92
  GI50: > 100 µM (inactive)
HT-29
  GI50: > 100 µM (inactive)
Hs-578T
  GI50: > 100 µM (inactive)
IGROV-1
  GI50: > 100 µM (inactive)
K562
  GI50: > 100 µM (inactive)
KM12
  GI50: > 100 µM (inactive)
LOX IMVI
  GI50: > 100 µM (inactive)
M14
  GI50: > 100 µM (inactive)
MCF7
  GI50: > 100 µM (inactive)
MDA-MB-231
  GI50: > 100 µM (inactive)
MDA-MB-435
  GI50: > 100 µM (inactive)
MDA-N
  GI50: > 100 µM (inactive)
MOLT-4
  GI50: > 100 µM (inactive)
Malme-3M
  GI50: > 100 µM (inactive)
NCI-H226
  GI50: > 100 µM (inactive)
NCI-H23
  GI50: > 100 µM (inactive)
NCI-H460
  GI50: > 100 µM (inactive)
NCI-H522
  GI50: > 100 µM (inactive)
NCI/ADR-RES
  GI50: > 100 µM (inactive)
OVCAR-3
  GI50: > 100 µM (inactive)
OVCAR-4
  GI50: > 100 µM (inactive)
OVCAR-5
  GI50: 97.9 µM (inactive)
OVCAR-8
  GI50: > 100 µM (inactive)
PC-3
  GI50: > 100 µM (inactive)
RPMI-8226
  GI50: > 100 µM (inactive)
RXF 393
  GI50: > 100 µM (inactive)
SF-268
  GI50: > 100 µM (inactive)
SF-295
  GI50: > 100 µM (inactive)
SF-539
  GI50: > 100 µM (inactive)
SK-MEL-28
  GI50: > 100 µM (inactive)
SK-MEL-2
  GI50: > 100 µM (inactive)
SK-MEL-5
  GI50: > 100 µM (inactive)
SK-OV-3
  GI50: > 100 µM (inactive)
SN12C
  GI50: > 100 µM (inactive)
SNB-19
  GI50: > 100 µM (inactive)
SNB-75
  GI50: > 78.2 µM (inactive)
SR
  GI50: > 100 µM (inactive)
SW-620
  GI50: > 100 µM (inactive)
T47D
  GI50: > 100 µM (inactive)
TK-10
  GI50: > 100 µM (inactive)
U-251
  GI50: > 100 µM (inactive)
UACC-257
  GI50: > 100 µM (inactive)
UACC-62
  GI50: > 100 µM (inactive)
UO-31
  GI50: > 100 µM (inactive)
